Measurements reported in patent publication US20190307726A1, “PHARMACEUTICAL FORMULATIONS” (Molecular Defenses Corporation, priority 2015, published 2019).

Tests used:
recombinant rat TrxR = target: T1, recombinant rat TrxR (Rattus norvegicus, UniProt O89049); details: cited from earlier work
T1 sequence (O89049 1-499): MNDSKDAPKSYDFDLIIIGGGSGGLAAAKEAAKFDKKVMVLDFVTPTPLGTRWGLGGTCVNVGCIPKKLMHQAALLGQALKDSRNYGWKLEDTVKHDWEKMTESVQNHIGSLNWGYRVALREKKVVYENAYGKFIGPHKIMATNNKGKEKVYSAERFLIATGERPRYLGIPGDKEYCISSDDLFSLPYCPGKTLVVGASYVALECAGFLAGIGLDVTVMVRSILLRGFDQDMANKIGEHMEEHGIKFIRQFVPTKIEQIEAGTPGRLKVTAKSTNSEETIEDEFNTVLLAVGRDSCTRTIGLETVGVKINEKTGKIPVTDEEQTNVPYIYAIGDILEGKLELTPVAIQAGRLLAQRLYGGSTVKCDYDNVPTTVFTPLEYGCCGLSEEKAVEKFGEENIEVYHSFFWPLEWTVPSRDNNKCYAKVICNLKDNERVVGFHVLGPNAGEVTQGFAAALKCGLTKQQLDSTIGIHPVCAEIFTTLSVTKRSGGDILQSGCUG

E. coli Trx = E. coli Trx (Escherichia coli, UniProt P0AA25); assay: Oxidation of reduced E. coli Trx-(SH)2, fluorescence spectroscopy; type: biochemical
Chain of E. coli Trx (P0AA25 whole entry): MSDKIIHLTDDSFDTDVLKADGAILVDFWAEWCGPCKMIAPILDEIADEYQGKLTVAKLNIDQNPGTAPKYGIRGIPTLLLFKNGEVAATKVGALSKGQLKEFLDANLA
Text: Oxidation E. coli Trx-(SH)2 by ebselen derivatives. Oxidant property of benzisoselenazol-3(2H)-one derivatives on reduced E. coli Trx-(SH)2 were studied by fluorescence spectroscopy.

Staphylococcus aureus = details: cited from earlier work
Gor- DHB4 E. coli = details: cited from earlier work
gshA- DHB4 E. coli = details: cited from earlier work
wild type DHB4 E. coli = details: cited from earlier work
[1] = test system: MDR Mycobacterium tuberculosis; assay: Sensitivity of Mycobacterium tuberculosis to ebselen, radiometric BACTEC 460 system; type: cell-based; details: medium with 5 g/l albumin; dependent upon albumin saturation
E. coli TrxR = E. coli TrxR (Escherichia coli, UniProt P0A9P4); details: cited from earlier work
Chain of E. coli TrxR (P0A9P4 2-321): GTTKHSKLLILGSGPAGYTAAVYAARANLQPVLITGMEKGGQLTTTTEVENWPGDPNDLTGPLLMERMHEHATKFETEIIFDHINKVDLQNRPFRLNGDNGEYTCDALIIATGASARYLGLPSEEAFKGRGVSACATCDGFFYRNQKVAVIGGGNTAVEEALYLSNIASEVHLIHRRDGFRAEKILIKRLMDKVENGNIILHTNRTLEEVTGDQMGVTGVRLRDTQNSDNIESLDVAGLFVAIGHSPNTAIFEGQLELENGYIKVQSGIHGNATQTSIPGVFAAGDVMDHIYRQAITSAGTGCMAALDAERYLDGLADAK

[2] = 30 μM compound, 0.5 mM GSH, 0.5 mM H2O2, NADPH consumption; cited from earlier work
HEK 293T cells = details: 24 h incubation, XTT; cited from earlier work

Compound: CC(C)(C)n1[se]c2ccccc2c1=O [EbSe 4]
- inhibition of mammalian TrxR (in words) (recombinant rat TrxR): some activity to inhibit mammalian TrxR

Compound: O=c1c2ccccc2[se]n1-c1ccccc1 [EbSe 6, 2-phenyl-1,2-benzisoselenazol-3(2H)-one]
- second-order rate constant, reduction by reduced E. coli Trx (E. coli Trx): 2e+07 M⁻¹ s⁻¹
- difference in sensitivity, Staphyloccus aureus versus E. coli (Staphylococcus aureus): 100 fold
- concentration inhibiting growth of methicillin resistant Staphylococcus aureus (Staphylococcus aureus; methicillin resistant Staphylococcus aureus): 0.20 μg per ml
- concentration inhibiting growth of Staphylococcus aureus 209P (Staphylococcus aureus; strain 209P): 0.20 µg/mL
- MIC for Gor- DHB4 E. coli (Gor- DHB4 E. coli): 15 µM
- MIC for gshA- DHB4 E. coli (gshA- DHB4 E. coli): 26 µM
- MIC for wild type DHB4 E. coli (wild type DHB4 E. coli): 40 µM
- MIC, Mycobacterium tuberculosis [1]: lower than 20 mg/I

Compound: O=c1c2ccccc2[se]n1-c1ccc(Cl)cc1 [EbSe 7]
- MIC for Gor- DHB4 E. coli (Gor- DHB4 E. coli): 23 µM
- MIC for gshA- DHB4 E. coli (gshA- DHB4 E. coli): 20 µM
- MIC for wild type DHB4 E. coli (wild type DHB4 E. coli): 34 µM

Compound: Cc1cc(Cl)ccc1-n1[se]c2ccccc2c1=O [EbSe 8]
- MIC for Gor- DHB4 E. coli (Gor- DHB4 E. coli): 24 µM
- MIC for gshA- DHB4 E. coli (gshA- DHB4 E. coli): 13 µM
- MIC for wild type DHB4 E. coli (wild type DHB4 E. coli): 47 µM

Compound: O=C(O)c1ccccc1-n1[se]c2ccccc2c1=O [EbSe 9]
- MIC for Gor- DHB4 E. coli (Gor- DHB4 E. coli): 31 µM
- MIC for gshA- DHB4 E. coli (gshA- DHB4 E. coli): 24 µM
- MIC for wild type DHB4 E. coli (wild type DHB4 E. coli): 49 µM

Compound: O=c1c2ccccc2[se]n1-c1ccc(Cl)cn1 [EbSe 11]
- IC50 (E. coli TrxR; read-out: IC50 for E. coli TrxR, 100 nM TrxR, 2 μM Trx, 240 μM NADPH, 1 mM DTNB): > 40 µM
- Ki (E. coli TrxR; read-out: Ki for E. coli TrxR, Dixon plot, 6 nM TrxR, Trx 1, 2 or 4 μM): 0.3 µM
- Relative GPx activity [2]: 0.87
- MIC for Gor- DHB4 E. coli (Gor- DHB4 E. coli): No Inh.
- MIC for gshA- DHB4 E. coli (gshA- DHB4 E. coli): No Inh.
- MIC for wild type DHB4 E. coli (wild type DHB4 E. coli): No Inh.
- IC50 (HEK 293T cells): > 160 µM

Compound: O=c1c2ccccc2[se]n1-c1ncccc1[N+](=O)[O-] [EbSe 12]
- Relative GPx activity [2]: 0.93
- MIC for Gor- DHB4 E. coli (Gor- DHB4 E. coli): No Inh.
- MIC for gshA- DHB4 E. coli (gshA- DHB4 E. coli): No Inh.
- MIC for wild type DHB4 E. coli (wild type DHB4 E. coli): No Inh.
- IC50 (HEK 293T cells): 80 µM

Compound: O=c1c2ccccc2[se]n1-c1ccncc1 [EbSe 13]
- MIC for Gor- DHB4 E. coli (Gor- DHB4 E. coli): 24 µM
- MIC for gshA- DHB4 E. coli (gshA- DHB4 E. coli): 21 µM
- MIC for wild type DHB4 E. coli (wild type DHB4 E. coli): 45 µM

Compound: O=c1c2ccccc2[se]n1CCn1[se]c2ccccc2c1=O [EbSe 14]
- Relative GPx activity [2]: No activity
- MIC for Gor- DHB4 E. coli (Gor- DHB4 E. coli): 19 µM
- MIC for gshA- DHB4 E. coli (gshA- DHB4 E. coli): 23 µM
- MIC for wild type DHB4 E. coli (wild type DHB4 E. coli): 23 µM

Compound: O=c1c2ccccc2[se]n1CCCCCCn1[se]c2ccccc2c1=O [EbSe 16]
- MIC for Gor- DHB4 E. coli (Gor- DHB4 E. coli): 35 µM
- MIC for gshA- DHB4 E. coli (gshA- DHB4 E. coli): 20 µM
- MIC for wild type DHB4 E. coli (wild type DHB4 E. coli): 20 µM

Compound: CCOC(=O)c1cccnc1[Se]Nc1ccc(Cl)cn1 [compound 2]
- MIC for Gor- DHB4 E. coli (Gor- DHB4 E. coli): No Inh.
- MIC for gshA- DHB4 E. coli (gshA- DHB4 E. coli): No Inh.
- MIC for wild type DHB4 E. coli (wild type DHB4 E. coli): No Inh.

Compound: O=C(Nc1ccccc1)c1ccccc1[Se][Se]c1ccccc1C(=O)Nc1ccccc1 [ebselen diselenide]
- second-order rate constant, reduction by reduced E. coli Trx (E. coli Trx): 1700 M⁻¹ s⁻¹
